Results: patent US20070207967A1, “Peptide Inhibitors of Matrix Metalloproteinase Activity” (CTT CANCER TARGETING TECHNOLOGIES OY, priority 2004, published 2007)

How the values were obtained:
CBD = target: T1, CBD (Homo sapiens, UniProt P14780); assay: Gelatin binding to immobilized CBD; details: biotinylated gelatin
T1 construct: CBD (amino acids Gly^204-Gly^373) was amplified from MMP-9 cDNA; made in house; host or cells: E. coli
Experimental: Gelatin and CBD binding assays. Recombinant CBD or human plasma fibronectin (Calbiochem) (0.2 μg/ml in TBS) was immobilized in microtiter wells. The wells were saturated with 1% BSA-PBST. Biotinylated gelatin (0.2 μg/ml in 1% BSA-PBST) was added with or without peptides at the concentrations indicated or with an excess of unlabelled gelatin (10 μg/ml) and allowed to bind for 1 h. Bound gelatin was detected with streptavidin-peroxidase. CBD binding to immobilized fibronectin, the 110-kDa fragment of fibronectin (Upstate Biotechnology) or urea-denaturated human plasma vitronectin (17) (1 μg/well) was studied using biotinylated CBD (5 μg/ml) in 1% BSA-PBST in the presence or absence of 20 μM peptides.

trypsin-activated MMP-9 = trypsin-activated MMP-9 (Homo sapiens, UniProt P14780); assay: Gelatinase inhibition assay (gelatin degradation), MMP-9; type: biochemical; details: biotinylated gelatin substrate
Sequence of trypsin-activated MMP-9 (P14780 107-707 limits assumed): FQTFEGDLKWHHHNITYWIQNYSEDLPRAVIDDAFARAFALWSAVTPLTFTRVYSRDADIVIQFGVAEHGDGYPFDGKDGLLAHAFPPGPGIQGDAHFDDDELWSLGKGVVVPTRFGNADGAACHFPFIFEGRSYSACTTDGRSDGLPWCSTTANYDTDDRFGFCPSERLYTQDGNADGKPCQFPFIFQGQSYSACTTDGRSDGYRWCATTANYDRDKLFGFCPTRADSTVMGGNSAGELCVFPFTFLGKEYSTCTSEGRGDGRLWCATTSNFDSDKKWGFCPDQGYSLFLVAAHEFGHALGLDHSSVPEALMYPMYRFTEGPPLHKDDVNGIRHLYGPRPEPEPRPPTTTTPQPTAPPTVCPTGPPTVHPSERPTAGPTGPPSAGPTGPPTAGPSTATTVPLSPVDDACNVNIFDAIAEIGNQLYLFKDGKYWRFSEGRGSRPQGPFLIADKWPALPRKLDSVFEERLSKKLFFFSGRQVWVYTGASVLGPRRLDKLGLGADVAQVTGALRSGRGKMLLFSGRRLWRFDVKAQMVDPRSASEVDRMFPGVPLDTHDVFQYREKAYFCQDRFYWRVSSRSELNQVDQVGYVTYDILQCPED
Experimental: Gelatinase inhibition assay. Inhibition of aminophenylmercuric acetate (APMA)-activated MMP-2 and trypsin-activated MMP-9 was performed using biotinylated gelatin as a substrate (15).

HT1080 cells [1] = assay: Pericellular proteolysis (gelatinolysis) of HT1080 cells; type: cell-based, human; details: HT1080, 48 h, PDBu, fibronectin/FITC-labelled gelatin coating
Experimental: Pericellular proteolysis. Microtiter wells were coated with a mixture of fibronectin (10 μg/ml) and FITC-labelled gelatin (100 μg/ml) followed by saturation with 1% BSA in PBS. HT1080 cells (50 000 in 100 μl 0.1% BSA/DMEM) were incubated in the presence of 20 nM PDBu (4β-phorbol-12,13-dibutyrate, SigmaAldrich) and the peptides or the MMP-2/MMP-9 selective inhibitor InhI (Calbiochem). As a control non-activated cells and medium without the cells were used. Gelatinolysis after 48 hours was measured as the increase of fluorescence from a 50 μl aliquot of the conditioned medium using Wallac Victor^2 reader.

αM integrin I domain = αM integrin I domain (Homo sapiens, UniProt P11215); assay: Pro-MMP-9 binding to αM integrin I domain
Sequence of αM integrin I domain (P11215 150-328 limits assumed): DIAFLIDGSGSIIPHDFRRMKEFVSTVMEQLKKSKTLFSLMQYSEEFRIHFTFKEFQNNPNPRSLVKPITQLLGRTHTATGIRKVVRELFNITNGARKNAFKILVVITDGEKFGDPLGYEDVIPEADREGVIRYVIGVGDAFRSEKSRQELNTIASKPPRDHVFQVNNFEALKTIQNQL
Experimental: Pro-MMP-9 and gelatin binding to leukocyte αM integrin. Pro-MMP-9 binding to the αM I domain in the presence of peptides was studied as described (12). Gelatin binding to the pro-MMP-^9/αMβ2 integrin complex was studied by immobilizing the integrin αMβ2 (12) or αIIbβ3 as a control (Enzyme Research Laboratories, South Bend, Ind.) (1 μg/well) in TBS/1 mM CaCl2/1 mM MgCl2 followed by saturation of the wells with 1% BSA in PB ST. Pro-MMP-9 (100 ng/well) was incubated for 2 h and the unbound pro-MMP-9 was washed away. Biotinylated gelatin (2.5 μg/ml) was allowed to bind for 30 min at room temperature. Bound gelatin was detected with streptavidin-peroxidase.

pro-MMP-9 = pro-MMP-9 (Homo sapiens, UniProt P14780); assay: Activation of purified pro-MMP-9 by MMP-3 in vitro; type: biochemical; details: 200 μM, 1 h, 37° C.
Sequence of pro-MMP-9 (P14780 20-707 limits assumed): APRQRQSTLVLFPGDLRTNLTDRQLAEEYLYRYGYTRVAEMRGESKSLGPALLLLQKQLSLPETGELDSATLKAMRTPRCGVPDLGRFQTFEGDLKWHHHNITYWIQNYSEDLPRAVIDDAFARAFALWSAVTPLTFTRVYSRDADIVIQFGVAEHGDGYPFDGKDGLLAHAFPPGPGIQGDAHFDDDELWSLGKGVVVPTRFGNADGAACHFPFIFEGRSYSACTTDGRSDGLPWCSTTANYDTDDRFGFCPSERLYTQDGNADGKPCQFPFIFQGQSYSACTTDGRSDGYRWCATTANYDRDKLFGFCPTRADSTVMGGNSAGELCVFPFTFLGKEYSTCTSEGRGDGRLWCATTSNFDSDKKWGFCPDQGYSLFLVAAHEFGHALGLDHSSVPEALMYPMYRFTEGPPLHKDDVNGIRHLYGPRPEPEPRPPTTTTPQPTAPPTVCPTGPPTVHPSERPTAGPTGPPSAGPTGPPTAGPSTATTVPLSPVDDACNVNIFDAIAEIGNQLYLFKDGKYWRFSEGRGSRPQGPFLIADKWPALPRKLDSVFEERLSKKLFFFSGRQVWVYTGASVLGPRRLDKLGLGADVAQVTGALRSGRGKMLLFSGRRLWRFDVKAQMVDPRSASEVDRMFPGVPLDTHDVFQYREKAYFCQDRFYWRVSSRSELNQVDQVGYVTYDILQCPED

HT1080 cells [2] = assay: HT1080 cell adhesion to vitronectin or fibronectin; type: cell-based, human; details: proteins 40 μg/ml, CRV peptide 200 μM
Experimental: Cell adhesion. HT1080 cells were allowed to adhere on vitronectin or fibronectin (2 μg/ml) in the presence or absence of peptides (200 μM), proteins (40 μg/ml) or a monoclonal anti-αvβ5 integrin antibody P1F6 (Chemicon) or a control antibody (25 μg/ml). The adhesion was quantified as described (14). Adhesion of THP-1 cells to immobilized KIM127 or control monoclonal antibodies (2 μg/ml) was done in the presence or absence of soluble proteins (50 μg/ml) or antibodies (25 μg/ml).

[3] = system: HSC-3 tongue squamous cell carcinoma xenografts; assay: Tumor growth in vivo, HSC-3 xenografts
Experimental: Tumor growth in vivo. […] HSC-3 tumors were established by administering 5×10^6 tumor cells in a 100 μl volume in PBS in both flanks of the Hsd:Athymic Nude-nu mice. After three days, the mice received five daily injection of 0.8 mg/ml CRV or the scrambled peptide or the vehicle (PBS) via the tail vein in a 200 μl volume. Three-dimensional caliper measurements were taken twice a week and the tumor volumes calculated. Mice were sacrificed when the tumor volume reached 1000 mm^3. For the staining of the tumor vasculature, 7 μm frozen tissue sections were stained with anti-CD31 antibody (MEC 13.3, BD Biosciences) and anti-rat Alexa Fluor 488 antibodies.

T1 sequence (P14780 223-392 limits assumed): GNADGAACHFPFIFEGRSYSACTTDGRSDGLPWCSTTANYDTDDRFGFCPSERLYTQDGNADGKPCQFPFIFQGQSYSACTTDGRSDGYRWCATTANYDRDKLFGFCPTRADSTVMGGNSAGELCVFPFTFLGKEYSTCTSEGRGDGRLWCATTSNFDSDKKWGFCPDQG

Sequence: CRVYGPYLLC
- Inhibition of gelatin binding to immobilized CBD (CBD): not
- Inhibition of MMP-9 activity in gelatin degradation assay (trypsin-activated MMP-9): did not inhibit
- Inhibition of pericellular gelatinolysis (HT1080 cells [1]): inhibited
- Effect on interaction of MMP-9 with the leukocyte αM integrin I domain (αM integrin I domain): do not affect
- Inhibition of activation of purified pro-MMP-9 by MMP-3 (pro-MMP-9): did not inhibit
- Inhibition of HT1080 cell adhesion to vitronectin or fibronectin (HT1080 cells [2]): Neither
- Survival of the mice ([3]; after two months): all five CRV-injected mice were alive
- Inhibition of tumor growth ([3]; at 31 days, five daily i.v. injections, vs scrambled peptide or PBS): statistically significant inhibition of tumor growth
- Kaplan-Meier survival, Log-Rank test p vs. PBS ([3]; mouse, in vivo): 0.002
- Kaplan-Meier survival, Log-Rank test p vs. scrambled CRV ([3]; mouse, in vivo): 0.003
- Tumor vasculature, CD31 immunostaining ([3]; mouse, in vivo): less developed tumor vasculature
